Measurements reported in ChEMBL document CHEMBL3297659, “Discovery, isolation, and structure elucidation of dretamycin” (J Nat Prod, 2014).
The source made the active and inactive calls. No cut-off for these calls is given here.

Legend:
Aspergillus fumigatus = experiment: Antifungal activity against Aspergillus fumigatus; assay type: functional
Saccharomyces cerevisiae = experiment: Antifungal activity against Saccharomyces cerevisiae; assay type: functional
[1] = Stability in aqueous solution at below pH 7.0; assay type: physicochemical; details: buffer
Candida = experiment: Antifungal activity against Candida spp.; assay type: functional
Candida albicans [2] = experiment: Antifungal activity against Candida albicans expressing DRE-2 heterozygous mutant; assay type: functional, organism-based
Candida albicans [3] = experiment: Growth stimulation in Candida albicans expressing DIP5 heterozygous mutant; assay type: functional, organism-based
Candida albicans [4] = experiment: Antifungal activity against Candida albicans expressing DRE-2 heterozygous mutant assessed as clear zone of inhibition by agar diffusion method; assay type: functional, organism-based
Candida albicans [5] = experiment: Antifungal activity against wild-type Candida albicans assessed as hazy zone of inhibition by agar diffusion assay; assay type: functional, organism-based

With `NC(=O)C1=CN(O)C(C(=O)[O-])C1.[K+]` (stereo not drawn) the MIC (Aspergillus fumigatus) was > 32 µg/mL and the MIC (Saccharomyces cerevisiae) was > 32 µg/mL.

For `NC(=O)C1=CN(O)C(C(=O)O)C1` (stereo not drawn) [listing 1 of 2 here], the Stability [1] was “Unstable” and the MIC (Candida) was > 8 µg/mL.

In the case of `NC(=O)C1=CN(O)C(C(=O)O)C1` (stereo not drawn) [listing 2 of 2 here], the Activity (Candida albicans [2]) is reported as “Active”, the Activity (Candida albicans [3]) is reported as “Active” and the “growth inhibition (GI)” value (Candida albicans [4]) is reported as “Active”. The “growth inhibition (GI)” value (Candida albicans [5]) was “Active”.
